The test concerns the target Regulator of G-protein signaling 18 (Homo sapiens) (UniProt Q9NS28). The test is described as follows: RGS18 binders by thermal stabilization, biophysical, recombinant human protein, DSF (AID 503). The following applies: SYPRO orange, at 10 µM, protein 2 µM, buffer 10 mM HEPES, pH 7.5, NaCl 150 mM, stronger effect = higher value.

Chain of Regulator of G-protein signaling 18 (Homo sapiens) (Q9NS28 whole entry, looked up): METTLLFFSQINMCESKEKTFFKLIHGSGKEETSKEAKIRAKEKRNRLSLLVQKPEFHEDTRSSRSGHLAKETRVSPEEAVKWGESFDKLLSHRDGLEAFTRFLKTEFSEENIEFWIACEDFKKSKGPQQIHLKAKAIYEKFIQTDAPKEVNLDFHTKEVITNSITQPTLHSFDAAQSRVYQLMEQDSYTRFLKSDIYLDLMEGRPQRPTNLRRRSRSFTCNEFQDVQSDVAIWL

On to `O=C1NCc2c1c1c3ccccc3[nH]c1c1[nH]c3ccccc3c21`, for which the Tm shift is 2.6 °C. Under `O=C(Nc1cccc(Nc2cc(Nc3cccc(C(F)(F)F)c3)ncn2)c1)C1CC1` stands 4 °C.

For the origin of these results see PubChem BioAssay AID503.
